Reference: PubChem BioAssay AID520 (NMMLSC, 2006)
Activity calls are given as the source filed them. How the calls were made is not given here.

Target: N-formyl peptide receptor 2 (Homo sapiens) (UniProt P25090)
Assay: FPRL1 binding inhibitor potency, dose response, cell-based, FPR counter-screen, fluorescent ligand (AID 520)
Conditions: FPRL1-expressing cells, fluorescent ligand binding inhibition; for Ki: measured here: FPRL1 binding Ki

Sequence of N-formyl peptide receptor 2 (Homo sapiens) (P25090 whole entry, looked up): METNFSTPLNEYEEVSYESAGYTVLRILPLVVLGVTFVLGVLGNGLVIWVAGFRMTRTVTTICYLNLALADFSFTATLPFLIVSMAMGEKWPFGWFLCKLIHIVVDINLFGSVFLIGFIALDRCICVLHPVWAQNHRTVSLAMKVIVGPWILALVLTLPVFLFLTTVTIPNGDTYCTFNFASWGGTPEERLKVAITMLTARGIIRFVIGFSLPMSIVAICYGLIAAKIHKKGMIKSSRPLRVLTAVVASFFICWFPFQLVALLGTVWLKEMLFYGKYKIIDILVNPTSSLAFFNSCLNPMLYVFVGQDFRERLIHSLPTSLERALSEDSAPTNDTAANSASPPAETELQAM

With `C=CCOc1cccc(C2C(C(=O)c3ccco3)=C(O)C(=O)N2CCN2CCOCC2)c1` (stereo not given) the IC50 was > 66.7 µM (inactive) and the Ki was greater than 40.3 µM.
With `COc1ccc(S(=O)(=O)NC(C)C(=O)Nc2cccc(C(C)=O)c2)cc1` (stereo not given) the Ki was greater than 40.3 µM.
In the case of `Cc1[nH]n2c(=O)c3c(nc2c1-c1ccc(Cl)cc1)CCC3`, the Ki is reported as greater than 40.3 µM.
With `Cc1ccsc1C1C2=C(CC(C)(C)CC2=O)Nc2ncnn21` (stereo not given) the IC50 was > 66.7 µM (inactive) and the Ki was greater than 40.3 µM.
With `Cc1[nH]n2c(=O)cc(-c3ccc([N+](=O)[O-])cc3)nc2c1-c1ccccc1` the Ki was 19.1 µM.
In the case of `COc1ccc(-c2cn3cccnc3n2)cc1NC(=O)C1CC1`, the Ki is reported as 4.6 µM.
In the case of `COc1ccc(C2C(C(=O)c3cccs3)=C(O)C(=O)N2c2nnc(C)s2)cc1OC` (stereo not given), the IC50 is reported as > 66.7 µM (inactive) and the Ki is reported as greater than 40.3 µM.
In the case of `O=C(C1=C(O)C(=O)N(CCN2CCOCC2)C1c1ccccc1)c1cccs1` (stereo not given), the IC50 is reported as > 66.7 µM (inactive) and the Ki is reported as greater than 40.3 µM.
`O=C(C1=C(O)C(=O)N(CCOCCO)C1c1cccs1)c1cccs1` (stereo not given) was tested, and the IC50 was > 66.7 µM (inactive) and the Ki was greater than 40.3 µM.
Compound `COc1ccc(-c2cc(C(F)(F)F)nc(NC3CCCC3)n2)cc1OC` has a Ki greater than 40.3 µM.
Compound `CCN1C(=O)/C(=C2\SC(=S)N(CCCOC)C2=O)c2ccccc21` has a Ki greater than 40.3 µM.
For `Cc1ccc(C2/C(=C(/O)c3ccc(Br)cc3)C(=O)C(=O)N2Cc2ccco2)o1` (stereo not given), the IC50 was > 66.7 µM (inactive) and the Ki was greater than 40.3 µM.
Work on `CCCS(=O)(=O)N1CCCC(C(=O)N2CCC(Cc3ccccc3)CC2)C1` (stereo not given) yielded a Ki greater than 40.3 µM.
In the case of `CCC(=O)Nc1c(C#N)c2nc3ccccc3nc2n1-c1ccccc1C`, the Ki is reported as greater than 40.3 µM.
